Source: US7943636B2 (dated 2011)

SMILES	melting point
CCCn1nc2c(N)nc3ccccc3c2c1CC1(O)CCC1	191 to 193 °C
CCn1nc2c(N)nc3ccccc3c2c1CC1(O)CCOCC1	253 to 255 °C
CCn1nc2c(N)nc3ccccc3c2c1CC1(O)CCCCC1	211.5 to 213 °C
CCn1nc2c(N)nc3ccccc3c2c1CC1(O)CCCC1	256 to 259 °C
CCn1nc2c(N)nc3ccccc3c2c1CC1(O)CCC1	245 to 247 °C
CCn1nc2c(N)nc3ccccc3c2c1CC1(O)CCSCC1	251.5 to 255 °C
CCn1nc2c(N)nc3ccccc3c2c1CC1(O)CCN(C(C)=O)CC1	231 to 232.5 °C
CCn1nc2c(N)nc3ccccc3c2c1CC1(O)CCN(S(C)(=O)=O)CC1	268 to 270 °C
CCCNC(=O)N1CCC(O)(Cc2c3c(nn2CC)c(N)nc2ccccc23)CC1	208.5 to 210 °C
CCn1nc2c(N)nc3ccccc3c2c1CC1CCOCC1	226 to 228 °C
CCn1nc2c(N)nc3c(c2c1CC1(O)CCCCC1)CCCC3	232 to 234 °C
CCCn1nc2c(N)nc3ccccc3c2c1CC1(O)CCOCC1	209 to 211 °C
Cn1nc2c(N)nc3ccccc3c2c1CC1(F)CCN(S(C)(=O)=O)CC1	283 to 285 °C
CC(=O)N1CCC(F)(Cc2c3c(nn2C)c(N)nc2ccccc23)CC1	241 to 243 °C
CC(C)NC(=O)N1CCC(F)(Cc2c3c(nn2C)c(N)nc2ccccc23)CC1	241 to 244 °C
CCn1nc2c(N)nc3ccccc3c2c1CC1(F)CCN(S(C)(=O)=O)CC1	269 to 271 °C
CCn1nc2c(N)nc3ccccc3c2c1CC1(F)CCN(C(C)=O)CC1	228 to 230 °C
CCn1nc2c(N)nc3ccccc3c2c1CC1(F)CCN(C(=O)NC(C)C)CC1	205 to 207 °C
CCCn1nc2c(N)nc3ccccc3c2c1CC1(F)CCN(S(C)(=O)=O)CC1	268 to 270 °C (dec.)
CCCn1nc2c(N)nc3ccccc3c2c1CC1(F)CCN(C(=O)NC(C)C)CC1	227 to 229 °C (dec.)
CCCn1nc2c(N)nc3ccccc3c2c1CC1CCOCC1	218 to 220 °C
CCCn1nc2c(N)nc3ncccc3c2c1CC1CCOCC1	252 to 255 °C
COCCn1nc2c(N)nc3ccccc3c2c1CC1CCOCC1	189 to 190 °C
COCCn1nc2c(N)nc3ncccc3c2c1CC1CCOCC1	230 to 233 °C
Cn1nc2c(N)nc3ccccc3c2c1CC1(F)CCOCC1	252 to 254 °C
Cn1nc2c(N)nc3ccccc3c2c1CC1(O)CCOCC1	260 to 262 °C (dec.)
CCn1nc2c(N)nc3ccccc3c2c1CC1(F)CCOCC1	275 to 277 °C
